Test results published in ChEMBL document CHEMBL4420076, “Amylin and calcitonin receptor agonist” (2017).
Numbered stars: 1 amine (or outer) side, 2 acyl side, 3 side chain; on linkers, the order of the positions; unused ones are H or OH. Peptide text beside a SMILES is read from it. * marks the point of attachment. C20 diacid = O=C(O)CCCCCCCCCCCCCCCCCCC(=O)*; C18 diacid = O=C(O)CCCCCCCCCCCCCCCCC(=O)*; C16 diacid = O=C(O)CCCCCCCCCCCCCCC(=O)*; γGlu = O=C(O)[C@H](CCC(=O)[*:2])N[*:1]

Legend:
[1] = Solubility in 100 mM bistrispropane buffer at pH 7.5 incubated for 18 hrs by UPLC analysis; type: physicochemical
[2] = Solubility in 100 mM bistrispropane buffer at pH 8.0 incubated for 18 hrs by UPLC analysis; type: physicochemical
[3] = Solubility in 100 mM glycylglycine buffer at pH 4.0 incubated for 18 hrs by UPLC analysis; type: physicochemical
[4] = Solubility in 100 mM bistrispropane buffer at pH 6.5 incubated for 18 hrs by UPLC analysis; type: physicochemical
[5] = biological target: T1, Amylin receptor AMY3; CALCR/RAMP3 (Homo sapiens, UniProt O60896+P30988); assay: Agonist activity at human amylin receptor expressed in BHK570 cells co-expressing RAMP3 assessed as increase in intracellular cAMP concentration incubated for 3 hrs in absence of albumin by CRE luciferase reporter gene assay; type: functional, cell-based
T1 sequence (P30988 whole entry): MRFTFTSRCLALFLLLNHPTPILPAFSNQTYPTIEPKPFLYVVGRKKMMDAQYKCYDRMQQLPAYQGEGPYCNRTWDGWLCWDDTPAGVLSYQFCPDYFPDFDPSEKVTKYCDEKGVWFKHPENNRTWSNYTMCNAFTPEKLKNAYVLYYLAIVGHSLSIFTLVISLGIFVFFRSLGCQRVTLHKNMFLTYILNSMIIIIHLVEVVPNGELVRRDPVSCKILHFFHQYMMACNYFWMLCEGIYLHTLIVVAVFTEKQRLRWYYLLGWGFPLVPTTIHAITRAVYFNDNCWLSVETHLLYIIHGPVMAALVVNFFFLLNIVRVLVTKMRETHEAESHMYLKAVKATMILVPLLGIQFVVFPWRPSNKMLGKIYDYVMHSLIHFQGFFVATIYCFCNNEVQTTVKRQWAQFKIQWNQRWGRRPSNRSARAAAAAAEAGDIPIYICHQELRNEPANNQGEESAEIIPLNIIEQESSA
T1 sequence (O60896 whole entry): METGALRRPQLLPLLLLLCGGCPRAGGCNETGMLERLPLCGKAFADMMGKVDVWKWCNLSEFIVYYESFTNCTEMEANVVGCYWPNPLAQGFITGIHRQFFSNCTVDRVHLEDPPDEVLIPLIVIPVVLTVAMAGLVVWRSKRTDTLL

[6] = Solubility in 100 mM glycylglycine buffer at pH 5.0 incubated for 18 hrs by UPLC analysis; type: physicochemical
[7] = Solubility in 100 mM bistrispropane buffer at pH 7.0 incubated for 18 hrs by UPLC analysis; type: physicochemical
[8] = test system: Rattus norvegicus; assay: Reduction in food intake in Sprague-Dawley rat at 3 nmol/kg measured 0 to 24 hrs post dose relative to control; type: functional; set-up: scale not given: the % may be the effect or the level left
[9] = Solubility in 100 mM bistrispropane buffer at pH 6.0 incubated for 18 hrs by UPLC analysis; type: physicochemical
[10] = test system: Rattus norvegicus; assay: Reduction in food intake in Sprague-Dawley rat at 3 nmol/kg measured 24 to 48 hrs post dose relative to control; type: functional; set-up: scale not given: the % may be the effect or the level left
[11] = Solubility in 100 mM glycylglycine buffer at pH 3.0 incubated for 18 hrs by UPLC analysis; type: physicochemical
[12] = biological target: T2, Calcitonin receptor (Homo sapiens, UniProt P30988); assay: Agonist activity at human calcitonin receptor expressed in BHK570 cells assessed as increase in intracellular cAMP concentration incubated for 3 hrs in absence of albumin by CRE luciferase reporter gene assay; type: functional, cell-based
T2 sequence (P30988 whole entry): T1 sequence (P30988 whole entry)

[13] = biological target: T1, Amylin receptor AMY3; CALCR/RAMP3; assay: Displacement of [125I]-labeled rat amylin from human amylin receptor expressed in BHK tkts13 whole cells co-expressing RAMP3 incubated for 60 mins by scintillation proximity assay; type: cell-based
[14] = biological target: T2, Calcitonin receptor; assay: Displacement of [125I]-labeled human calcitonin from human calcitonin receptor expressed in BHK tkts13 whole cells incubated for 60 mins by scintillation proximity assay; type: cell-based
[15] = biological target: T2, Calcitonin receptor; assay: Agonist activity at human calcitonin receptor expressed in BHK570 cells assessed as increase in intracellular cAMP concentration incubated for 3 hrs in presence of 10% FBS by CRE luciferase reporter gene assay; type: functional, cell-based
[16] = biological target: T1, Amylin receptor AMY3; CALCR/RAMP3; assay: Agonist activity at human amylin receptor expressed in BHK570 cells co-expressing RAMP3 assessed as increase in intracellular cAMP concentration incubated for 3 hrs in presence of 10% FBS by CRE luciferase reporter gene assay; type: functional, cell-based

SMILES	solubility at 18 h [1] [µM]	solubility at 18 h [2] [µM]	solubility at 18 h [3] [µM]	solubility at 18 h [4] [µM]	EC50 [5] [nM]	solubility at 18 h [6] [µM]	solubility at 18 h [7] [µM]	Activity [8] [%]	solubility at 18 h [9] [µM]	Activity [10] [%]	solubility at 18 h [11] [µM]	EC50 [12] [nM]	IC50 [13] [nM]	IC50 [14] [nM]	EC50 [15] [nM]	EC50 [16] [nM]
CC(C)C[C@H](NC(=O)[C@H](C)NC(=O)[C@H](C)NC(=O)[C@@H](NC(=O)[C@H](CO)NC(=O)[C@H](CC(C)C)NC(=O)[C@H](CCC(=O)O)NC(=O)[C@H](CO)NC(=O)[C@H](C)NC(=O)[C@H](CCC(=O)O)NC(=O)CCCCCCCCCCCCCCC(=O)O)[C@@H](C)O)C(=O)NCC(=O)N[C@@H](CCCNC(=N)N)C(=O)N[C@@H](CC(C)C)C(=O)N[C@@H](CO)C(=O)N[C@@H](C)C(=O)N[C@@H](CCC(=O)O)C(=O)N[C@@H](CC(C)C)C(=O)N[C@@H](Cc1cnc[nH]1)C(=O)N[C@@H](CCC(=O)O)C(=O)N[C@@H](CC(C)C)C(=O)N[C@@H](C)C(=O)N[C@H](C(=O)N[C@@H](CC(C)C)C(=O)N1CCC[C@H]1C(=O)N[C@@H](CCCNC(=N)N)C(=O)N[C@H](C(=O)N[C@@H](CCC(=O)O)C(=O)N[C@H](C(=O)NCC(=O)N1CCC[C@H]1C(=O)N[C@@H](CCC(=O)O)C(=O)N[C@@H](CO)C(=O)N1CCC[C@H]1C(N)=O)[C@@H](C)O)[C@@H](C)O)[C@@H](C)O ({C16 diacid}-EASELSTAALGRLSAELHELATLPRTETGPESP-NH2)	≥ 200	≥ 200	≥ 200	≥ 200	0.008	≥ 200	≥ 200	63	≥ 200	9	≥ 200	0.004	0.498	0.413		
CC(C)C[C@H](NC(=O)[C@H](C)NC(=O)[C@H](C)NC(=O)[C@@H](NC(=O)[C@H](CO)NC(=O)[C@H](CC(C)C)NC(=O)[C@H](CCC(=O)O)NC(=O)[C@H](CO)NC(=O)[C@H](C)NC(=O)[C@H](CCC(=O)O)NC(=O)CCCCCCCCCCCCCCCCC(=O)O)[C@@H](C)O)C(=O)NCC(=O)N[C@@H](CCCNC(=N)N)C(=O)N[C@@H](CC(C)C)C(=O)N[C@@H](CO)C(=O)N[C@@H](C)C(=O)N[C@@H](CCC(=O)O)C(=O)N[C@@H](CC(C)C)C(=O)N[C@@H](Cc1cnc[nH]1)C(=O)N[C@@H](CCC(=O)O)C(=O)N[C@@H](CC(C)C)C(=O)N[C@@H](C)C(=O)N[C@H](C(=O)N[C@@H](CC(C)C)C(=O)N1CCC[C@H]1C(=O)N[C@@H](CCCNC(=N)N)C(=O)N[C@H](C(=O)N[C@@H](CCC(=O)O)C(=O)N[C@H](C(=O)NCC(=O)N1CCC[C@H]1C(=O)N[C@@H](CCC(=O)O)C(=O)N[C@@H](Cc1cnc[nH]1)C(=O)N1CCC[C@H]1C(N)=O)[C@@H](C)O)[C@@H](C)O)[C@@H](C)O ({C18 diacid}-EASELSTAALGRLSAELHELATLPRTETGPEHP-NH2)	≥ 200	≥ 200	≥ 200	≥ 200	0.02	≥ 200	≥ 200		≥ 200		≥ 200	0.017	1.27	1.17		
CC(C)C[C@H](NC(=O)[C@H](CCC(=O)O)NC(=O)[C@H](C)NC(=O)[C@H](CO)NC(=O)[C@H](CC(C)C)NC(=O)[C@H](CCCNC(=N)N)NC(=O)CNC(=O)[C@H](CC(C)C)NC(=O)[C@@H](NC(=O)[C@H](C)NC(=O)[C@@H](NC(=O)[C@H](CO)NC(=O)[C@H](CC(C)C)NC(=O)[C@H](CCC(=O)O)NC(=O)[C@H](CO)NC(=O)[C@H](C)NC(=O)[C@H](CCC(=O)O)NC(=O)CCCCCCCCCCCCCCCCC(=O)O)[C@@H](C)O)C(C)C)C(=O)N[C@@H](C)C(=O)N[C@@H](CCC(=O)O)C(=O)N[C@@H](CC(C)C)C(=O)N[C@@H](C)C(=O)N[C@H](C(=O)N[C@@H](CC(C)C)C(=O)N1CCC[C@H]1C(=O)N[C@@H](CCCNC(=N)N)C(=O)N[C@H](C(=O)N[C@@H](CCC(=O)O)C(=O)N[C@H](C(=O)NCC(=O)N1CCC[C@H]1C(=O)N[C@@H](CCC(=O)O)C(=O)N[C@@H](CO)C(=O)N1CCC[C@H]1C(N)=O)[C@@H](C)O)[C@@H](C)O)[C@@H](C)O ({C18 diacid}-EASELSTAVLGRLSAELAELATLPRTETGPESP-NH2)	≥ 200	≥ 200		≥ 200	0.008	≥ 200	≥ 200	73	≥ 200	39	≥ 200	0.007		0.752		
CC(C)C[C@H](NC(=O)[C@H](CCCNC(=N)N)NC(=O)CNC(=O)[C@H](CC(C)C)NC(=O)[C@@H](NC(=O)[C@H](C)NC(=O)[C@@H](NC(=O)[C@H](CO)NC(=O)[C@H](CC(C)C)NC(=O)[C@H](CCC(=O)O)NC(=O)[C@H](CO)NC(=O)[C@H](C)NC(=O)CC[C@H](NC(=O)CCCCCCCCCCCCCCCCCCC(=O)O)C(=O)O)[C@@H](C)O)[C@@H](C)O)C(=O)N[C@@H](CO)C(=O)N[C@@H](C)C(=O)N[C@@H](CCC(=O)O)C(=O)N[C@@H](CC(C)C)C(=O)N[C@@H](Cc1cnc[nH]1)C(=O)N[C@@H](CCC(=O)O)C(=O)N[C@@H](CC(C)C)C(=O)N[C@@H](CO)C(=O)N[C@H](C(=O)N[C@@H](Cc1ccc(O)cc1)C(=O)N1CCC[C@H]1C(=O)N[C@@H](CCCNC(=N)N)C(=O)N[C@H](C(=O)N[C@@H](CCC(=O)O)C(=O)N[C@H](C(=O)NCC(=O)N[C@@H](CO)C(=O)NCC(=O)N[C@@H](CO)C(=O)N1CCC[C@H]1C(N)=O)[C@@H](C)O)[C@@H](C)O)[C@@H](C)O ({C20 diacid-γGlu}-ASELSTATLGRLSAELHELSTYPRTETGSGSP-NH2)	≥ 200	≥ 200	≥ 200	≥ 200	0.022		≥ 200		≥ 200		≥ 200		2.61	2.94	0.105	0.15
CC(C)C[C@H](NC(=O)[C@H](CCCNC(=N)N)NC(=O)CNC(=O)[C@H](CC(C)C)NC(=O)[C@@H](NC(=O)[C@H](C)NC(=O)[C@@H](NC(=O)[C@H](CO)NC(=O)[C@H](CC(C)C)NC(=O)[C@H](CCC(N)=O)NC(=O)[C@H](CO)NC(=O)[C@H](C)NC(=O)[C@H](CCC(=O)O)NC(=O)CC[C@H](NC(=O)CCCCCCCCCCCCCCCCCCC(=O)O)C(=O)O)[C@@H](C)O)C(C)C)C(=O)N[C@@H](CO)C(=O)N[C@@H](CCC(N)=O)C(=O)N[C@@H](CCC(=O)O)C(=O)N[C@@H](CC(C)C)C(=O)N[C@@H](Cc1cnc[nH]1)C(=O)N[C@@H](CCC(=O)O)C(=O)N[C@@H](CC(C)C)C(=O)N[C@@H](CCC(N)=O)C(=O)N[C@H](C(=O)N[C@@H](Cc1ccc(O)cc1)C(=O)N1CCC[C@H]1C(=O)N[C@@H](CCCNC(=N)N)C(=O)N[C@H](C(=O)NCC(=O)N[C@H](C(=O)NCC(=O)N[C@@H](CO)C(=O)NCC(=O)N[C@H](C(=O)N[C@@H](Cc1ccc(O)cc1)C(N)=O)[C@@H](C)O)[C@@H](C)O)[C@@H](C)O)[C@@H](C)O ({C20 diacid-γGlu}-EASQLSTAVLGRLSQELHELQTYPRTGTGSGTY-NH2)					0.066							0.056	0.338	0.796		
